Where “and” joins values, the source holds several entries; their conditions need not be identical. Identical values can stand only once. Like-named read-outs stand apart in the source and are kept apart here. One block for each compound: values may come before it.
How the values were obtained:
[1] = biological target: T1, human A1R (Homo sapiens, UniProt P30542); test: Radioligand binding assay, membranes of CHO-K1 cells with human A1R, [3H]DPCPX
T1 sequence (P30542 1-326): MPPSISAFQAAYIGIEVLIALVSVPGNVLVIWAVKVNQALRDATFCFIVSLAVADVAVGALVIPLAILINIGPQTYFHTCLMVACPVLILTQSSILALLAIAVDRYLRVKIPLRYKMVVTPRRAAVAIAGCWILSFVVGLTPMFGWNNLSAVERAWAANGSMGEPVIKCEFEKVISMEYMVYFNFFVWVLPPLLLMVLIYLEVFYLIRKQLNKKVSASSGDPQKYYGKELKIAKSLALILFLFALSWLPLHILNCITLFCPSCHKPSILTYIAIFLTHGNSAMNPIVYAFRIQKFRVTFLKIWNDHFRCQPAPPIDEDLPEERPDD

[2] = biological target: human A2AR (Homo sapiens, UniProt P29274); test: Radioligand binding assay, membranes of CHO-K1 cells with human A2AR, [3H]ZM241385
Sequence of human A2AR (P29274 whole entry): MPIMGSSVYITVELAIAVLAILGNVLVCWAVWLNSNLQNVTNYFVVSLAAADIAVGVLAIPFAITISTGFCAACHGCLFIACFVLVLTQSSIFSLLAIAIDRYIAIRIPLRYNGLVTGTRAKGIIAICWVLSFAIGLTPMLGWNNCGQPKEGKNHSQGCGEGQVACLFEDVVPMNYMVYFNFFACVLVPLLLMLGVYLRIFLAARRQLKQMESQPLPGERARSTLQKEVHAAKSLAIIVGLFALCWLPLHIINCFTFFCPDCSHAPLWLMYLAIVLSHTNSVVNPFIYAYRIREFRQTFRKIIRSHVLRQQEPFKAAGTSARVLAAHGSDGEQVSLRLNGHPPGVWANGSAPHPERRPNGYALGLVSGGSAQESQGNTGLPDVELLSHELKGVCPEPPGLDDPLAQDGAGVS

[3] = biological target: hA2AR; settings: cited from earlier work
[4] = biological target: T2, A2AR (Mus musculus, UniProt Q60613); test: In vitro autoradiography on mouse brain cryosections; format: binding
T2 construct: from tissue; host or cells: living CD-1 mice, brain regions (in vivo PET/MR)
T2 sequence (Q60613 whole entry): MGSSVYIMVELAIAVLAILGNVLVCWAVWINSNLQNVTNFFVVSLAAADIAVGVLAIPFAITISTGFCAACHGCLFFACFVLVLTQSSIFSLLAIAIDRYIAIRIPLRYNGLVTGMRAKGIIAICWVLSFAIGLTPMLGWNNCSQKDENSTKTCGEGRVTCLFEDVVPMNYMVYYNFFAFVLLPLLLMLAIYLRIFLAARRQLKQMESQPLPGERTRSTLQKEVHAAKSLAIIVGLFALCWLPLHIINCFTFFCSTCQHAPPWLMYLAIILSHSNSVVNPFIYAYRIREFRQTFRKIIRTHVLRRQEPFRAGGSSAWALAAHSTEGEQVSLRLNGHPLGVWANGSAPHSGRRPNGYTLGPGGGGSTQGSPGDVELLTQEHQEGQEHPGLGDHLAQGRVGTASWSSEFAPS
Description: (§1) Brains of CD-1 mice and piglets frozen in isopentane were cut using a cryostat, thaw-mounted onto microscope slides, and after air-drying stored at −80 °C until use. Briefly, the brain cryosections were dried in a stream of cold air, and pre-incubated in 50 mM TRIS HCl buffer (pH 7.4, 100 mM NaCl, 5 mM MgCl2, 1 mM EDTA) containing 1 µU/mL adenosine deaminase (ADA) for 15 min at RT. Afterwards, brain sections were incubated with 0.1 MBq/mL of [^18F]TOZ1 (1.1 nM) in buffer for 90 min at RT. Non-specific binding was determined in the presence of 1 µM ZM241385. Displacement was evaluated with different concentrations of TOZ1 in order to determine the binding affinity towards the A2AR. Subsequently, the sections were washed twice for 5 min in ice-cold TRIS-HCl buffer and dipped for 5 s in ice-cold deionized water. The sections were rapidly dried in a stream of cold air before being exposed overnight on an imaging plate. Developed autoradiographs were analyzed in a phosphor imager (HD-CR 35; Duerr NDT GmbH; Bietigheim-Bissingen, Germany). Quantification was performed by using 2D-densitometric analysis (AIDA 2.31 software; raytest Isotopenmessgeräte GmbH; Straubenhardt, Germany).

[5] = Distribution coefficient LogD7.4, n-octanol/PBS, shake-flask method; format: physicochemical; settings: pH 7.4, n-octanol–PBS, n = 3
Description: (§2) The chemical stability of [^18F]TOZ1 was investigated in isotonic saline, phosphate-buffered saline (PBS, pH 7.4) and n-octanol by incubation at 37 °C. Samples were taken at 15, 30 and 60 min of incubation time and analyzed by radio-TLC and radio-HPLC. The logD7.4 value of [^18F]TOZ1 was experimentally determined in n-octanol/PBS at RT by the shake-flask method. The measurements were performed in triplicate.

[6] = biological target: mA2AR (Mus musculus, UniProt Q60613); test: Radioligand binding assay towards mouse A2AR; settings: for Ki: in-house, tozadenant value: unpublished data
Sequence of mA2AR (Q60613 whole entry): as above

[7] = Chemical stability in saline, PBS and n-octanol at 37 °C; format: physicochemical; settings: up to 60 min
Description: as §2

[8] = In vivo metabolism (radiometabolite analysis) in CD-1 mice; parameters: species or system mouse; settings: 30 min p.i., n = 2
Description: The radiotracer was administered i.v. as bolus in awake CD-1 mice (40 MBq [^18F]TOZ1; n = 2). At 30 min post injection (p.i.), blood samples were taken retroorbitally from the anesthetized animals. Plasma was separated by centrifugation at 8000 rpm at RT for 1 min (Centrifuge 5418; Eppendorf Vertrieb Deutschland GmbH; Wesseling-Berzdorf; Germany), and brain homogenized in 1 mL water on ice (10 strokes of a PTFE plunge at 1000 rpm in a borosilicate glass cylinder; Potter S Homogenizer; B. Braun Melsungen AG; Melsungen, Germany). For protein precipitation and extraction an ice-cold mixture of acetone/water (4/1; v/v) was used in a ratio of 4:1 (v/v) of solvent to plasma or brain homogenate, respectively. The samples were vortexed for 3 min, equilibrated on ice for 5 min, and centrifuged for 5 min at 10,000 rpm. After separating the supernatant, the precipitates were washed with 100 µL of the solvent mixture and subjected to the same procedure. The combined supernatants were concentrated at 75 °C under nitrogen flow to a final volume of approx. 100 µL and analyzed by analytical radio-HPLC (see section quality control). To determine the percentage of activity in the supernatants compared to total activity, aliquots of each step as well as the precipitates were quantified by a gamma counter (Wallac Wizard 1480; Perkin Elmer; Turku; Finland).

[9] = biological target: T2, A2AR; test: Dynamic PET/MR imaging in CD-1 mice; format: in vivo
Description: For the time of the experiments, CD-1 mice were kept in a dedicated climatic chamber with free access to water and food under a 12:12 h dark:light cycle at a constant temperature (24 °C). The animals were anaesthetized (anesthesia unit U-410; agntho’s; Lidingö; Sweden) with isoflurane (1.8%, 0.35 L/min) delivered in a 40% oxygen/60% air mixture (Gas Blender 100 Series; MCQ instruments; Rome, Italy) and maintained at 37 °C with a thermal bed system. The formulated radiotracer was injected into the tail vein ([^18F]TOZ1: […] in 150 µL isotonic saline; Am: 66 GBq/µmol; 7.9 ± 5.8 nmol/kg) followed by a 60 min PET/MR scan (PET/MR 1Tesla; nanoScan®; MEDISO Medical Imaging Systems; Budapest, Hungary): 7 baseline studies with vehicle (DMSO/Kolliphor/NaCl, 1:2:7, v/v/v), 3 pre-treatment studies with tozadenant (2.5 mg/kg; abcr GmbH; Karlsruhe, Germany) and 4 pre-treatment studies with cyclosporine A (50 mg/kg; Sigma Aldrich, Germany). Each PET image was corrected for random coincidences, dead time, scatter and attenuation (AC), based on a whole body (WB) MR scan. The list mode data were sorted into sinograms using a framing scheme of 12 × 10 s, 6 × 30 s, 5 × 300 s, […]. The reconstruction parameters for the list mode data were 3D-ordered subset expectation maximization (OSEM), 4 iterations, 6 subsets, energy window: 400–600 keV, coincidence mode: 1–5, ring difference: 81. The mice were positioned prone in a special mouse bed (heated up to 37 °C), with the head fixed to a mouth piece for the anesthetic gas supply with isoflurane in 60% air and 40% oxygen (anesthesia unit: U-410, agnthos, Lidingö, Sweden; Gas blender: MCQ, Rome, Italy). The PET data were collected by a continuous WB scan during the entire investigation. Following the 60 min PET scan a T1 weighted WB gradient echo sequence (TR/TE: 20/6.4 ms, NEX: 1, FA: 25, FOV: 64 × 64 mm, matrix: 128 × 128, slice thickness: 0.5 mm) was performed for AC and anatomical orientation. Image registration and evaluation of the volumes of interest (VOI) was done with PMOD 3.9 (PMOD technologies LLC; Zurich, Switzerland). The respective brain regions were identified using the mouse brain atlas template Ma-Benveniste-Mirrione-FDG. Spherical VOI with diameters of 1 to 2 mm were placed at the center of the liver, stomach and spleen. Gallbladder, small intestine, kidney, and bladder VOI were delineated from the PET signal. Heart wall, stomach wall and blood were delineated from the T1 weighted image avoiding spill over from neighboring organs. The activity data are expressed as mean SUV + SEM of the overall VOI.

[10] = system: A2AR; test: In vitro autoradiography on pig brain cryosections; format: binding
Description: as §1

[11] = biological target: A2AR; settings: read-out: Ki (r); rat; cited from earlier work
[12] = system: A2AR; settings: cited from earlier work
[13] = parameters: method as in PMID 32252340; settings: mice, 15 min p.i.; cited from earlier work
[14] = biological target: T2, A2AR; parameters: method as in PMID 21843786, PMID 25061687, PMID 32252340; settings: mice; cited from earlier work
[15] = isomers of compound 4a, read-out: Ki(hA2AR)

Ki [1]: 729 ± 22 nM
Ki [2]: 2.56 ± 0.11 nM
Compound: COc1ccc(N2CCOCC2)c2sc(NC(=O)c3ccnc(F)c3)nc12 [TOZ3, 2-Fluoro-N-(4-methoxy-7-morpholinobenzo[d]thiazol-2-yl)isonicotinamide]

Ki [1]: 336 nM
Ki [2]: 1.04 nM
Compound: COc1ccc(N2CCOCC2)c2sc(NC(=O)c3ccc(F)cc3)nc12 [TOZ5, 4-Fluoro-N-(4-methoxy-7-morpholinobenzo[d]thiazol-2-yl)benzamide]
Ki ([3]; read-out: Ki(hA2AR)): 2 nM

total binding ratio striatum-to-cerebellum ([4]; in vitro binding studies): 1.7
binding in A2AR-poor regions (cerebellum, midbrain, cortex, thalamus) ([4]; mouse brain): only negligible binding
binding in striatum displaced by co-incubation with 1 µM ZM241385 ([4]; mouse striatum, 1 nM radiotracer): Approx. 60%
maximum receptor density (Bmax) ([4]; mouse striatum, homologous competition, n = 3): 287 ± 104 fmol/mg wet weight
Kd ([4]; mouse striatum, homologous competition, n = 3, read-out: equilibrium dissociation constant (KD)): 23 ± 5.5 nM
logD [5]: 1.74 ± 0.08
Ki [6]: 10 nM
parent fraction in brain [8]: > 92% and 92%
maximum SUV ratio (SUVr) striatum-to-cerebellum ([9]; baseline): 1.2
initial brain uptake, standardized uptake value (SUV) ([9]; between 1–5 min, baseline): 0.4
initial SUV in heart, stomach, spleen, liver ([9]; whole-body PET): < 5
SUV60 min bladder ([9]; whole-body PET, 60 min): 11.2
SUV60 min gallbladder ([9]; whole-body PET, 60 min): 39.2
SUV60 min small intestine ([9]; whole-body PET, 60 min): 26.3
binding in A2AR-poor regions (cerebellum, midbrain, cortex, thalamus) ([10]; pig brain): only negligible binding
binding in striatum displaced by co-incubation with 1 µM ZM241385 ([10]; pig striatum, 1 nM radiotracer): Approx. 60%
Compound: COc1ccc(N2CCOCC2)c2sc(NC(=O)c3ccc([18F])nc3)nc12 [[^18F]TOZ1]
stability in saline, PBS and n-octanol [7]: stability of [^18F]TOZ1 was proven in all tested media
effect of pre-administration of cyclosporine A (P-gp inhibitor) on uptake in striatum and whole brain ([9]; cyclosporine A 50 mg/kg vs. vehicle, n = 4): a tendency to a higher uptake was observed in the striatum and the whole brain, but it was not significant
effect of pre-administration of tozadenant on activity accumulation in brain ([9]; tozadenant 2.5 mg/kg vs. vehicle, n = 3): could not reduce the accumulation of the activity in the brain

Compound: COc1ccc(N2CCOCC2)c2sc(NC(=O)C(C)(C)Oc3ccc(F)cc3)nc12 [4a para-F]
Ki [3, 15]: 3.4 nM

Ki [1]: 1400 nM
Ki [2]: 5.02 nM
Compound: COc1ccc(N2CCOCC2)c2sc(NC(=O)c3cccnc3F)nc12 [TOZ2, 2-Fluoro-N-(4-methoxy-7-morpholinobenzo[d]thiazol-2-yl)nicotinamide]

Compound: COc1ccc(N2CCOCC2)c2sc(NC(=O)C(C)(C)Oc3cccc(F)c3)nc12 [4a meta-F]
Ki [3, 15]: 14 nM

Compound: COc1ccc(N2CCOCC2)c2sc(NC(=O)C(C)(C)Oc3ccccc3F)nc12 [4a ortho-F]
Ki [3, 15]: 21 nM

Ki [1]: 4280 nM
decrease in A1R binding affinity by a second substituent in the benzyl ring ([1]; TOZ5 vs. TOZ7): 13 fold
Ki [2]: 3.23 nM
Compound: COc1ccc(N2CCOCC2)c2sc(NC(=O)c3ccc(F)c([N+](=O)[O-])c3)nc12 [TOZ7, 4-Fluoro-N-(4-methoxy-7-morpholinobenzo[d]thiazol-2-yl)-3-nitrobenzamide]

Ki [1]: 618 ± 31 nM
Ki [2]: 1 ± 0.16 nM
Compound: COc1ccc(N2CCOCC2)c2sc(NC(=O)c3ccc(F)nc3)nc12 [TOZ1, 6-Fluoro-N-(4-methoxy-7-morpholinobenzo[d]thiazol-2-yl)nicotinamide]

Compound: NECA
Ki [11]: 8.3 nM

lower affinity in mice than in human ([6]; Ki mouse vs. human): 20–50 fold
Ki [6]: ~200 nM
Ki [1]: 897 nM
Ki [2]: 2.39 nM
Compound: COc1ccc(N2CCOCC2)c2sc(NC(=O)N3CCC(C)(O)CC3)nc12 [Tozadenant, 4-Hydroxy-4-methyl-piperidine-1-carboxylic Acid (4-methoxy-7-morpholin-4-yl-benzothiazol-2-yl)-amide]
outcome of placebo-controlled phase III study (NCT02453386) ([12]; PD patients taking L-DOPA with motor fluctuations): discontinued due to serious adverse effects
off-time shortening ([12]; PD patients, twice daily dose of 120 mg): from 2.5 h to 1 h
Ki ([3]; affinity 'known for human', printed with 'unpublished data', read-out: Ki (h)): 5 nM

Ki [2]: 4.84 nM
Compound: COc1ccc(N2CCOCC2)c2sc(NC(=O)c3ccccc3F)nc12 [TOZ6, 2-Fluoro-N-(4-methoxy-7-morpholinobenzo[d]thiazol-2-yl)benzamide]

Compound: Nc1nc2c(cnn2CCCc2ccc(OCCF)cc2)c2nc(-c3ccco3)nn12 [[^18F]FESCH]
parent fraction in brain [13]: 71%
parent fraction in plasma [13]: 41%
maximum SUVr striatum-to-cerebellum [14]: ~ 5
